According to BindingDB's records for PubMed 9686407 (Sri International, 1998):
Non-standard residues stand in square brackets, D forms with d. Residues, ends and D or L forms follow the SMILES beside them. NMeF = CN[C@@H](Cc1ccccc1)C(=O)O

What was measured:
Mu-type opioid receptor = Mu-type opioid receptor (Cavia porcellus, UniProt P97266)
[1] = molecular target: Kappa-type opioid receptor (Cavia porcellus, UniProt P41144)
[2] = molecular target: T1, 5-hydroxytryptamine receptor 3A (Mus musculus, UniProt P23979)
T1 sequence (P23979 whole entry): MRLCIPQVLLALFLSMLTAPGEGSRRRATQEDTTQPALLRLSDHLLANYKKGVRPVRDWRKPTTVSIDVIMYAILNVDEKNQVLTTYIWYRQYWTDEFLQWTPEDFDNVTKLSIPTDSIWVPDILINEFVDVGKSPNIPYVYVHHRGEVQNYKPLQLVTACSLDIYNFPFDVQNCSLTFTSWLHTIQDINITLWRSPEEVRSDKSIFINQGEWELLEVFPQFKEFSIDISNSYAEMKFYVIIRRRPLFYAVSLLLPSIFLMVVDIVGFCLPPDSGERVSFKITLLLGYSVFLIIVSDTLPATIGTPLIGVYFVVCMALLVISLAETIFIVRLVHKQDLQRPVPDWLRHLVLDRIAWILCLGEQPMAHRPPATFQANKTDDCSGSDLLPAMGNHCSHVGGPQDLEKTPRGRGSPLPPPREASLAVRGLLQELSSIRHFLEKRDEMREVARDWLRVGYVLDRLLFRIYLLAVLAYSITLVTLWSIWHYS

D(1A) dopamine receptor = D(1A) dopamine receptor (Homo sapiens, UniProt P21728)
[3] = molecular target: T2, 5-hydroxytryptamine receptor 1A (Homo sapiens, UniProt P08908)
T2 sequence (P08908 whole entry): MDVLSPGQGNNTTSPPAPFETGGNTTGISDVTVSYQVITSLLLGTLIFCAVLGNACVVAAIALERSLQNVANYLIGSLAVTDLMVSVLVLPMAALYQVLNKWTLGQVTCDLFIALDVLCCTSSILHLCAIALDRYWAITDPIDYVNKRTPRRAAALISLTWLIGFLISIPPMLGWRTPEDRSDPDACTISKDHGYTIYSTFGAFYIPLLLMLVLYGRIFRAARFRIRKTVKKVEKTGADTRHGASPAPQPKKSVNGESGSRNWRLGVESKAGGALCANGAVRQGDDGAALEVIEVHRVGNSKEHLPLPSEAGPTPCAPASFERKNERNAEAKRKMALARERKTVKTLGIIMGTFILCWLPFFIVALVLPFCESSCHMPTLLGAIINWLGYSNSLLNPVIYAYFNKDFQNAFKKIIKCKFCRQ

[4] = molecular target: 5-hydroxytryptamine receptor 2A (Rattus norvegicus, UniProt P14842)
[5] = molecular target: T3, 5-hydroxytryptamine receptor 2C (Rattus norvegicus, UniProt P08909)
T3 sequence (P08909 whole entry): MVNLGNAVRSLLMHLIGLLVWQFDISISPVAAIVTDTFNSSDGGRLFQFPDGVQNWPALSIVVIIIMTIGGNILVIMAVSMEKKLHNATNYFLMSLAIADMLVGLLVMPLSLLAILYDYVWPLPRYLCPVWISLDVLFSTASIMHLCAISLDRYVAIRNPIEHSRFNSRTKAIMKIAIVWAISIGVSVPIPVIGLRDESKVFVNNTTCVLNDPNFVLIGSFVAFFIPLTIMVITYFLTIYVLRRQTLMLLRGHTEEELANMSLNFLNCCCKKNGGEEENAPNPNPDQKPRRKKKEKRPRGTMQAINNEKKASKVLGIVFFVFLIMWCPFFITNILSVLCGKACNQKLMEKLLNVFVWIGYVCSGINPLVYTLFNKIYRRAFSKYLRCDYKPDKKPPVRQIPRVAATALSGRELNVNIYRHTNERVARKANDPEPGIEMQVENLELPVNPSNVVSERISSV

Sequence of 5-hydroxytryptamine receptor 2A (P14842 whole entry): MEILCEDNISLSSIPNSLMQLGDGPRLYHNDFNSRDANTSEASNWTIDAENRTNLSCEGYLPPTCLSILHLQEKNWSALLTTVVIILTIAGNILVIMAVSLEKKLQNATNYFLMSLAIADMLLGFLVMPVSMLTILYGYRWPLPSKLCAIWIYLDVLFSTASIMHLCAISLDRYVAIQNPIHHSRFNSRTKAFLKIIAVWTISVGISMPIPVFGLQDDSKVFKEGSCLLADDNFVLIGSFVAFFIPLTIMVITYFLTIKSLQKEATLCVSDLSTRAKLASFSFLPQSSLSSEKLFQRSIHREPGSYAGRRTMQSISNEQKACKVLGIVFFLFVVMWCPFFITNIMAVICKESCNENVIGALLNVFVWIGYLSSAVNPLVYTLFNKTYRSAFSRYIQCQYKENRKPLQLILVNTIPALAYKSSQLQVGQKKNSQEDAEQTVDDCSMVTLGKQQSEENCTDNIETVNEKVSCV
Sequence of Kappa-type opioid receptor (P41144 whole entry): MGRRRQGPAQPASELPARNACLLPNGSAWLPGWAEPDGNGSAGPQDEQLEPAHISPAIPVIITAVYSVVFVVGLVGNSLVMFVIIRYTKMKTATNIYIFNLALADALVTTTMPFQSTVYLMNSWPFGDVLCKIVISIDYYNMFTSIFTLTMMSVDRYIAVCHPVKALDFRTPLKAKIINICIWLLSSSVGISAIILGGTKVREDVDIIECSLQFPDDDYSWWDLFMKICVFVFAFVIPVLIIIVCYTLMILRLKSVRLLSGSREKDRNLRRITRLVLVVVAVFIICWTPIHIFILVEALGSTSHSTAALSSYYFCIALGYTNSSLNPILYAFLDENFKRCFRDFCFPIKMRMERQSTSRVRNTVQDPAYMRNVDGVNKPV
Sequence of D(1A) dopamine receptor (P21728 whole entry): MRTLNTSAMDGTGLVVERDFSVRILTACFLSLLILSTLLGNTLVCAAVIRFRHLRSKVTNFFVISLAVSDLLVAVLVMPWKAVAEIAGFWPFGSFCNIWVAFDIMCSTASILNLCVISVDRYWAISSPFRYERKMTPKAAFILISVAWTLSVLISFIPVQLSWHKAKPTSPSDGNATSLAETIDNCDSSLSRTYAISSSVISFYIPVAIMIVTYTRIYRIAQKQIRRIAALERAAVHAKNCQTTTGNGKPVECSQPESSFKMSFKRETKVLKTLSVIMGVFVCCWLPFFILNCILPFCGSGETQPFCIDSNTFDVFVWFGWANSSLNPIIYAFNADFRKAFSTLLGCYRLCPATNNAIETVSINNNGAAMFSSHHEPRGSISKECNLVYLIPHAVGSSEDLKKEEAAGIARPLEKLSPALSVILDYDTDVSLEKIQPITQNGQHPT
Sequence of Mu-type opioid receptor (P97266 whole entry): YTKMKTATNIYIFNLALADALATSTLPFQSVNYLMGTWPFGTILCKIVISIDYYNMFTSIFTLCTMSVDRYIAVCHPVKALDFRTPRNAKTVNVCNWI

Compound	Ki (Mu-type opioid receptor)	Ki [1]	Ki [2]	Ki (D(1A) dopamine receptor)	Ki [3]	Ki [4]	Ki [5]
CCC12CCN(CC3(O)CC3)C(Cc3ccc(O)cc31)C2(C)C (configuration not stated)	0.1 nM	–	–	–	–	–	–
CC[C@H](C)[C@H](NC(=O)[C@H](CCCN=C(N)N)NC(=O)[C@H](CCCN=C(N)N)NC(=O)[C@H](CC(C)C)NC(=O)[C@H](Cc1ccccc1)NC(=O)CNC(=O)CNC(=O)[C@@H](N)Cc1ccc(O)cc1)C(=O)O	–	1.4 nM	–	–	–	–	–
C=CCN1CCC23c4c5ccc(O)c4O[C@@H]2C(=NNC(=O)c2ccccc2)CCC3(O)C1C5 (some centres not stated)	0.2 nM	0.4 nM	–	–	–	–	–
CN(C(=O)[C@@H]1CCCN1C(=O)[C@@H](N)Cc1ccc(O)cc1)[C@@H](Cc1ccccc1)C(=O)N1CCC[C@@H]1C(N)=O (H-YP[NMeF][dP]-NH2)	8.1 nM	> 10000 nM	–	–	–	–	–
NC(=O)N1c2ccccc2C=Cc2ccccc21 [5H-dibenzo[b,f]azepine-5-carboxamide]	–	–	> 10000 nM	> 10000 nM	> 10000 nM	> 10000 nM	> 10000 nM
CN1CC(C(=O)N[C@]2(C)O[C@@]3(O)C4CCCN4C(=O)[C@H](Cc4ccccc4)N3C2=O)CC2c3cccc4[nH]cc(c34)CC21 (stereo partly drawn) [7-Methyl-4,6,6a,7,8,9,10,10a-octahydro-indolo[4,3-fg]quinoline-9-carboxylic acid ((2R,5S,10bS)-5-benzyl-10b-hydroxy-2-methyl-3,6-dioxo-octahydro-oxazolo[3,2-a]pyrrolo[2,1-c]pyrazin-2-yl)-amide]	–	–	> 10000 nM	2780 nM	1.5 nM	38 nM	298 nM
C[C@@H]1[C@@H]2Cc3ccc(O)cc3[C@@]1(C)CCN2CC1CC1 [(SSS)-12-Cyclopropylmethyl-13-methyl-12-aza-tricyclo[9.1.1.0*3,8*]trideca-3(8),4,6-trien-6-ol(cyclazocine)]	–	0.1 nM	–	–	–	–	–
COC(=O)[C@H]1[C@H]2C[C@@H]3c4[nH]c5cc(OC)ccc5c4CCN3C[C@H]2C[C@@H](OC(=O)c2cc(OC)c(OC)c(OC)c2)[C@@H]1OC [Apoplon]	–	–	> 10000 nM	3850 nM	1830 nM	3060 nM	3100 nM
CC(C)C[C@H]1C(=O)N2CCC[C@H]2[C@]2(O)O[C@](NC(=O)[C@@H]3C=C4c5cccc6[nH]c(Br)c(c56)C[C@H]4N(C)C3)(C(C)C)C(=O)N12 [Bromocriptine+ (GTP+)]	–	–	> 10000 nM	2070 nM	25 nM	117 nM	4670 nM
Oc1ccc2c3c1O[C@H]1c4[nH]c5c(c4C[C@@]4(O)[C@@H](C2)N(CC2CC2)CC[C@]314)C[C@@]1(O)[C@H]2Cc3ccc(O)c4c3[C@@]1(CCN2CC1CC1)[C@H]5O4 [C18130]	8.3 nM	–	–	–	–	–	–
CN1CC[C@]23CCCC[C@H]2[C@H]1Cc1ccc(O)cc13 [CAS_5985-38-6]	0.3 nM	3.4 nM	–	–	–	–	–
CCCN1CCCC(c2cccc(O)c2)C1 (configuration not stated) [CAS_85976-54-1]	–	–	> 10000 nM	> 10000 nM	4170 nM	5990 nM	> 10000 nM
CN1CCN(c2nc3cc(C(F)(F)F)ccc3n3cccc23)CC1 [CAS_109028-10-6]	–	–	> 10000 nM	1530 nM	44 nM	3130 nM	6600 nM
Oc1ccc2c3c1O[C@H]1c4oc5ccccc5c4C[C@@]4(O)[C@@H](C2)N(CC2CC2)CC[C@]314 [CAS_111555-58-9]	6.5 nM	10.2 nM	–	–	–	–	–
CN1CCC2(C)c3cc(O)ccc3CC1C2(C)CCC(=O)CCC1CCCC1 (configuration not stated) [CAS_115077]	0.1 nM	0.2 nM	–	–	–	–	–
C[C@@H](O)[C@H](NC(=O)[C@H]1NC(=O)[C@H]([C@@H](C)O)NC(=O)[C@H](CCCN=C(N)N)NC(=O)[C@@H](Cc2c[nH]c3ccccc23)NC(=O)[C@H](Cc2ccc(O)cc2)NC(=O)[C@@H](NC(=O)[C@H](N)Cc2ccccc2)CSSC1(C)C)C(N)=O [CTAP-NH2]	0.5 nM	1050 nM	–	–	–	–	–
COC(=O)[C@H]1[C@@H](OC(=O)c2ccccc2)C[C@@H]2CC[C@H]1N2C [Cocaine (-)]	–	–	> 10000 nM	> 10000 nM	> 10000 nM	> 10000 nM	> 10000 nM
CN1CC[C@]23c4c5ccc(O)c4O[C@H]2[C@@H](O)CCC3[C@H]1C5 (some centres not stated) [DIHYDROMORPHINE]	0.8 nM	–	–	–	–	–	–

Compound	Ki (Mu-type opioid receptor)	Ki [1]	Ki [2]	Ki (D(1A) dopamine receptor)	Ki [3]	Ki [4]	Ki [5]
CC(C)C[C@H](NC(=O)[C@H](Cc1ccccc1)NC(=O)CNC(=O)[C@@H](CO)NC(=O)[C@@H](N)Cc1ccc(O)cc1)C(=O)N[C@H](C(=O)O)[C@@H](C)O [DSLET-OH]	20.6 nM	> 10000 nM	–	–	–	–	–
CC[C@H](C)[C@H](NC(=O)[C@H](CCCNC(=N)N)NC(=O)[C@H](CCCNC(=N)N)NC(=O)[C@H](CC(C)C)NC(=O)[C@H](Cc1ccccc1)NC(=O)CNC(=O)CNC(=O)[C@@H](N)Cc1ccc(O)cc1)C(=O)N[C@@H](CCCNC(=N)N)C(=O)N1CCC[C@H]1C(=O)N[C@@H](CCCCN)C(=O)N[C@@H](CC(C)C)C(=O)N[C@@H](CCCCN)C(=O)O [Dynorphin A (1-13)]	3.3 nM	–	–	–	–	–	–
CC(C)C[C@H](NC(=O)[C@H](Cc1ccccc1)NC(=O)CNC(=O)CNC(=O)[C@@H](N)Cc1ccc(O)cc1)C(=O)N[C@@H](CCCN=C(N)N)C(=O)N[C@@H](CCCN=C(N)N)C(=O)N[C@@H](CCC(N)=O)C(=O)N[C@@H](Cc1ccccc1)C(=O)N[C@@H](CCCCN)C(=O)N[C@H](C(=O)N[C@H](C(=O)N[C@H](C(=O)O)[C@@H](C)O)C(C)C)C(C)C [Dynorphin B (1-13)]	5.5 nM	–	–	–	–	–	–
CC[C@@]12CCN(CC3CC3)C(C(=O)c3ccc(O)cc31)[C@@H]2C [EKC]	0.4 nM	–	–	–	–	–	–
CC[C@@H]1CC2C[C@@H]3c4[nH]c5ccc(OC)cc5c4CCN(C2)C13 [IBOGAINE]	–	–	> 10000 nM	> 10000 nM	> 10000 nM	> 10000 nM	> 10000 nM
CN1C2CCC1CC(OC(=O)c1cc(Cl)cc(Cl)c1)C2 (configuration not stated) [MDL 72222]	–	–	14 nM	> 10000 nM	> 10000 nM	2850 nM	> 10000 nM
CN[C@@H](C)Cc1ccccc1 [METHAMPHETAMINE (+)]	–	–	> 10000 nM	> 10000 nM	> 10000 nM	> 10000 nM	> 10000 nM
C=CCN1CC[C@]23c4c5ccc(O)c4O[C@H]2[C@@H](O)C=CC3[C@H]1C5 (some centres not stated) [NALORPHINE - HCI]	1.9 nM	1.7 nM	–	–	–	–	–
Oc1ccc2c3c1OC1c4[nH]c5ccccc5c4CC4(O)[C@H](C2)N(CC2CC2)CCC314 (some centres not stated) [NALTRINDOLE]	0.2 nM	7.8 nM	–	–	–	–	–
Oc1ccc2c3c1OC1C(O)C=CC4C(C2)NCCC341 (configuration not stated) [NORMORPHINE]	3.9 nM	64.5 nM	–	–	–	–	–
C=C1CCC2(O)C3Cc4ccc(O)c5c4C2(CCN3CC2CC2)C1O5 (configuration not stated) [NSC_119501]	0.3 nM	0.3 nM	–	–	–	–	–
COc1ccc2c3c1OC1C(O)C=CC4C(C2)N(C)CCC341 (configuration not stated) [NSC_223652]	152 nM	> 10000 nM	–	–	–	–	–
CC(C)=CCN1CC[C@@]2(C)c3cc(O)ccc3C[C@@H]1[C@@H]2C [Talwin]	5.7 nM	4.4 nM	–	–	–	–	–
CC(C)[C@H](NC(=O)[C@H](CCC(=O)O)NC(=O)[C@H](Cc1ccccc1)NC(=O)[C@@H](C)NC(=O)[C@@H](N)Cc1ccc(O)cc1)C(=O)N[C@H](C(=O)NCC(N)=O)C(C)C [Tyr-D-Ala-Phe-Glu-Val-Val-GlyNH2]	–	> 10000 nM	–	–	–	–	–
C#CCN(C)[C@H](C)Cc1ccccc1 [US8633208, Deprenyl]	–	–	> 10000 nM	> 10000 nM	> 10000 nM	5640 nM	> 10000 nM
Fc1ccc(C(OCCN2CCN(CCCc3ccccc3)CC2)c2ccc(F)cc2)cc1 [Vanoxerine]	–	–	> 10000 nM	> 10000 nM	4680 nM	161 nM	> 10000 nM
CC(C)C[C@@H](NC(=O)[C@H](Cc1ccccc1)NC(=O)CNC(=O)[C@@H](C)NC(=O)[C@@H](N)Cc1ccc(O)cc1)C(=O)O [[D-Ala2-D-Leu5]enkephalin]	3.2 nM	> 10000 nM	–	–	–	–	–
